{"source": "paper PMC5323086", "about": "“Ionization Constants of the Six Dichloroanilines and the Six Dichlorophenols in Aqueous Solution at 25 °C” (Journal of Research of the National Bureau of Standards. …, 1964)", "key": {"[1]": {"assay": "pK calculated from monosubstituted compounds assuming additivity of substituent effects"}, "[2]": {"conditions": "cited from earlier work"}, "[3]": {"assay": "pK calculated by the Hammett relation, eq (5) and eq (6)"}, "[4]": {"conditions": "aqueous solution at 25°; final value, standard deviation in parentheses; 2,6-compound: limiting value at CHCl=0"}, "[5]": {"assay": "pKA calculated from pKP of the corresponding phenol by linear relation eq (8)"}, "[6]": {"assay": "pK values quoted from the literature", "format": "physicochemical", "conditions": "Murray and Gordon value raised by 0.22"}, "[7]": {"conditions": "pK (calc.)−pK (obs.), pK (calc.) from monosubstituted compounds"}}, "note": "Where two headings read alike, the source gives them in different places."}
{"smiles": "Oc1cc(Cl)ccc1Cl", "note": "[2,5-Dichlorophenol]", "values": [{"measurement": "ΔpK(1) Dichlorophenol", "setting": "[1]", "result": ".15"}]}
{"smiles": "Cc1ccc(C)c(O)c1", "note": "[2,5-xylenol]", "values": [{"measurement": "pK", "setting": "[2]", "result": 10.40}]}
{"smiles": "Oc1cc(Cl)cc(Cl)c1", "note": "[3,5-Dichlorophenol]", "values": [{"measurement": "ΔpK(1) Dichlorophenol", "setting": "[1]", "result": ".07"}, {"measurement": "difference of Hammett-calculated pK from the observed value", "setting": "[3]", "result": 0.01}]}
{"smiles": "Nc1c(Cl)cccc1Cl", "note": "[2,6-Dichloroaniline]", "values": [{"measurement": "pK Dichloroaniline", "setting": "[4]", "result": 0.422}, {"measurement": "ΔpK(1) Dichloroaniline", "setting": "[1]; [7]", "result": ".28"}, {"measurement": "pKa", "setting": "physchem", "result": 0.482}]}
{"smiles": "Nc1cccc(Cl)c1Cl", "note": "[2,3-Dichloroaniline]", "values": [{"measurement": "ΔpK(1) Dichloroaniline", "setting": "[1]; [7]", "result": 0.16}]}
{"smiles": "Oc1ccc(Cl)c(Cl)c1", "note": "[3,4-Dichlorophenol]", "values": [{"measurement": "ΔpK(1) Dichlorophenol", "setting": "[1]", "result": "−.04"}, {"measurement": "difference of Hammett-calculated pK from the observed value", "setting": "[3]", "result": 0.08}]}
{"smiles": "Cc1cc(N)ccc1[N+](=O)[O-]", "note": "[4-nitro-m-toluidine]", "values": [{"measurement": "discrepancy between observed and predicted pK, eq (8)", "setting": "[5]", "result": 0.17}, {"measurement": "pK", "setting": "[2]; Wepster", "result": 1.50}]}
{"smiles": "Nc1cc(Cl)cc(Cl)c1", "note": "[3,5-Dichloroaniline]", "values": [{"measurement": "ΔpK(1) Dichloroaniline", "setting": "[1]", "result": ".06"}, {"measurement": "difference of Hammett-calculated pK from the observed value", "setting": "[3]", "result": 0.02}]}
{"smiles": "Oc1cccc(Cl)c1Cl", "note": "[2,3-Dichlorophenol]", "values": [{"measurement": "ΔpK(1) Dichlorophenol", "setting": "[1]", "result": "−0.05"}]}
{"smiles": "Nc1ccc(Cl)cc1[N+](=O)[O-]", "note": "[4-chloro-2-nitroaniline]", "values": [{"measurement": "discrepancy between observed and predicted pK, eq (8)", "setting": "[5]", "result": 1.03}]}
{"smiles": "O=C(O)c1cc(Cl)cc(Cl)c1", "note": "[3,5-dichlorobenzoic acid]", "values": [{"measurement": "ionization constant (pK)", "setting": "[2]", "result": 3.43}]}
{"smiles": "Nc1cc(Cl)ccc1Cl", "note": "[2,5-Dichloroaniline]", "values": [{"measurement": "melting point", "result": "50 to 50.5", "unit": "°C"}, {"measurement": "pKA", "setting": "[2]; Gillois and Rumpf", "result": 1.57}]}
{"smiles": "Nc1ccc(Cl)cc1Cl", "note": "[2,4-Dichloroaniline, 2,4-Dichloroaniline]", "values": [{"measurement": "ΔpK(1) Dichloroaniline", "setting": "[1]; [7]", "result": ".01"}]}
{"smiles": "Oc1c(Cl)cccc1Cl", "note": "[2,6-Dichlorophenol]", "values": [{"measurement": "pKP adjusted value", "setting": "[6]", "result": 7.01}, {"measurement": "ΔpK(1) Dichlorophenol", "setting": "[1]", "result": ".27"}]}
{"smiles": "O=C(O)c1ccc(Cl)c(Cl)c1", "note": "[3,4-dichlorobenzoic acid]", "values": [{"measurement": "ionization constant (pK)", "setting": "[2]", "result": 3.64}]}
{"smiles": "Nc1ccc(Cl)c(Cl)c1", "note": "[3,4-Dichloroaniline]", "values": [{"measurement": "ΔpK(1) Dichloroaniline", "setting": "[1]", "result": "−.07"}]}
{"smiles": "Oc1ccc(Cl)cc1Cl", "note": "[2,4-Dichlorophenol]", "values": [{"measurement": "ΔpK(1) Dichlorophenol", "setting": "[1]", "result": ".06"}]}
